system: P. falciparum 3D7 growth, pLDH absorbance; test: blood-stage malaria parasite growth potency – strain 3D7, dose response (AID 2305)

Compound | IC50 [nM]
COc1ccc(-c2nnc(Sc3ccc(C#N)c([N+](=O)[O-])c3)n2CCC(C)C)cc1 | 1110
CCN(CC)CCN1C(=O)C(O)(c2ccccc2Cl)c2c1cc(C#N)cc2C(F)(F)F (centres undefined) | 950
CCOC(=O)c1cc(C(=O)NCCCCN2CCC(c3ccc(CC)cc3OCC)CC2)ccc1-c1ccc(C(F)(F)F)cc1 | 610
CCC(C)NC(=O)CN1CN(c2ccccc2)C2(CCN(C(=O)c3ccc(C(C)(C)C)cc3)CC2)C1=O (centres undefined) | 130
Cc1ccc(NC(=O)NC2CCN(CCCCCNC(=O)[C@@H]3C[C@H]3c3ccc(Cl)c(Cl)c3)CC2)cc1 | 540
Cc1ccc2nc(C)cc(NN=Cc3cccc(Cl)c3)c2c1 | 740
O=C(/C=C/c1ccc(Cl)c(Cl)c1)NCCCCCN1CCCC(CNS(=O)(=O)c2ccc(F)cc2)C1 (centres undefined) | 1160
Cn1cnc(CCNC(=O)c2cccc(-c3csc(-c4nc5ccccc5[nH]4)c3)c2)c1 | 600
CC(CN(C)C)C(=O)Nc1cccc(-c2ccc(-c3nc4ccccc4[nH]3)s2)c1 (centres undefined) | 740
CC(C)C(=O)n1ncc2c3c(N)nc(N)nc3ccc21 | 1030
CC(C)CNCc1ccc(-c2cccc(CN(C(=O)NC3CCCCC3)C3CCN(Cc4ccccc4)CC3)c2)cc1 | 800
O=C(NCCOc1ccccc1)[C@H](Cc1ccccc1)Nc1ccnc(NCC2CCCCC2)n1 | 1200
O=C(Nc1cccc(CN2CCCN(Cc3cccc(O)c3)CC2)c1)c1ccc2ccccc2c1 | 790
Cc1ccccc1Cc1cccc(/N=C(\N)Nc2ccc(Cl)cc2)n1 | 680
CSc1cccc(Nc2nc3ccc(S(=O)(=O)NC(C)C(C)C)cc3n2[C@H](C)C(C)(C)C)c1 (some centres undefined) | 450
Cc1cc(N[C@@H](Cc2ccccc2)C(=O)NCc2cccc(F)c2)nc(NCCc2cccs2)n1 | 620
NC(=O)c1ccc(-c2ccc3ccnc(N)c3c2)cc1 | 420
CC1(C)CCC(=Cc2ccc(Cl)cc2)CC1(O)Cn1ccnc1 (centres undefined) | 740
CCCCCN1CCCC1CNS(=O)(=O)c1cccc(C(=O)Nc2cccc(C(F)(F)F)c2)c1 (centres undefined) | 770
Cc1cccc2[nH]c(-c3ccc(-c4ccc(CN5CCCC(N)C5)cc4)cc3)nc12 (centres undefined) | 350

Compound | IC50 [nM]
CN(Cc1ccc(C#N)cc1)C1CCN(c2cc(NC(=O)c3cccc(F)c3)ccn2)CC1 | 1750
CC(C)CNCc1cccc(-c2cccc(CN(CCN(C)C)C(=O)NCCc3ccccc3)c2)c1 | 690
Clc1ccc(C2CCN(CCCOc3ccc4c(c3)CCNCC4)CC2)cc1 | 750
Cc1cccc2[nH]c(-c3cccc(-c4cccc(CNCc5ccccc5)c4)c3)nc12 | 390
Nc1c(Cl)cc(C(O)CNCCCCCCCCCc2ccccn2)cc1Cl (centres undefined) | 860
CCCCCN1CCCN(Cc2cccc(NC(=O)c3cc4ccccc4s3)c2)CC1 | 590
CS(=O)(=O)Nc1ccc2c(C3CCN(CC4CCN(C(=O)/C=C/c5ccc(Cl)c(Cl)c5)CC4)CC3)c[nH]c2c1 | 760
COc1cc2nc(NCC3CCN(c4nc(N)c5cc(OC)c(OC)cc5n4)CC3)nc(N)c2cc1OC | 780
O=[N+]([O-])c1ccc(-c2ccc(C=NNc3nc(Nc4ccccc4)nc(Nc4ccccc4)n3)o2)cc1 | 1430
COc1ccccc1C1CCN(C2CCC(NC(=O)/C=C/c3cc(F)cc(C(F)(F)F)c3)CC2)CC1 (centres undefined) | 900
Nc1nc(N)c2c(ccc3c2ccn3Cc2ccc(F)cc2)n1 | 10
CCOC(=O)c1c(C)n(-c2ccccc2)c2ccc(O)cc12 | 470
c1cc(CNCC2CCCO2)cc(-c2csc(-c3nc4ccccc4[nH]3)c2)c1 (centres undefined) | 1040
CCCCc1cc(NC2CCN(C)CC2)nc(Nc2ccccc2)n1 | 660
CCOc1ccc2nc(C)cc(NN=Cc3ccc(Cl)cc3)c2c1 | 760
CN(C)Cc1c(O)ccc2[nH]c(-c3cccc(F)c3)nc12 | 1000
CCCOc1cccc(C(=O)N[C@@H](Cc2ccccc2)[C@H](O)CNCc2cccc(OC)c2)c1 | 740
COC(=O)c1cccc(CNCc2ccc(-c3cccc(-c4nc5ccccc5[nH]4)c3)cc2)c1 | 260
Cn1cc(CCNc2ccnc(NCCc3coc4ccccc34)n2)c2ccccc21 | 1060

Reference: PubChem BioAssay AID2305 (GlaxoSmithKline (GSK), 2010)
